In patent publication US8741884B2, “Compounds for the treatment of hepatitis C” (priority 2010, dated 2014):
Read-outs that look alike come from different tables or passages of the source.

Test system: HCV pseudoparticles (genotype 1a HCV E1 and E2 envelope, H77C isolate)
Assay: microbe, parasite or virus in culture
Assay type: cell-based
[1] = Hepatitis C virus, Huh-7, 48 h, class symbol, HCV pseudoparticles genotype 1a (H77C), Huh7 cells, luciferase 2 days after infection, average of duplicates

SMILES	EC50 [1] [nM]	further results
O=C(NCC1CCCN1)c1ccc2cc1OCCCCCCOc1ccc(cc1)CNc1nc(nc(OCC(F)(F)F)n1)N2 (stereo not shown) [Example 1503]	0.1 to 100	–
CCOC(=O)[C@H](CCCNC(=N)N)NC(=O)c1ccc2cc1OCCCCCCOc1ccc(cc1)CNc1nc(nc(OCC(F)(F)F)n1)N2 [Example 1317]	0.1 to 100	–
CN(C)CC(C)(C)CNC(=O)c1ccc2cc1OCCCC(O)C(O)CCCOc1ccc(cc1)CNc1nc(nc(OCC(F)(F)F)n1)N2 (stereo not shown) [Example 1022]	0.1 to 100	–
CN(C)CC(C)(C)CNC(=O)c1ccc2cc1OCCCCCOc1ccc(cc1)CNc1nc(nc(OCC(F)(F)F)n1)N2 [Example 1009]	0.1 to 100	–
CCCN1CCCOc2ccc(cc2)CNc2nc(nc(OCC(F)(F)F)n2)Nc2ccc(C(=O)NCC3(CN4CCCC4)CC3)c(c2)OCCC1 [Example 3012]	0.1 to 100	–
O=C(NC(C(=O)O)C1CCCNC1)c1ccc2cc1OCCCCCCOc1ccc(cc1)CNc1nc(nc(OCC(F)(F)F)n1)N2 (stereo not shown) [Example 1552]	0.1 to 100	–
CN1CCCOc2ccc(cc2)CNc2nc(nc(OCC(F)(F)F)n2)Nc2ccc(C(=O)NCC3(CN4CCCC4)CC3)c(c2)OCCC1 [Example 3010]	0.1 to 100	–
CCCCN1CCCOc2ccc(cc2)CNc2nc(nc(OCC(F)(F)F)n2)Nc2ccc(C(=O)NCC3(CN4CCCC4)CC3)c(c2)OCCC1 [Example 3014]	0.1 to 100	–
CC(C)(C)OC(=O)N1C[C@H](C(=O)O)[C@H](NC(=O)c2ccc3cc2OCCCCCCOc2ccc(cc2)CNc2nc(nc(OCC(F)(F)F)n2)N3)C1 [Example 1558]	0.1 to 100	–
FC(F)(F)COc1nc2nc(n1)NC1(CC1)c1ccc(cc1)OC/C=C/COc1cccc(c1)N2 [Example 2008]	0.1 to 100	–
CC(C)OC(=O)N1CCCOc2ccc(cc2)CNc2nc(nc(OCC(F)(F)F)n2)Nc2ccc(C(=O)NCC3(CN4CCCC4)CC3)c(c2)OCCC1 [Example 3006]	0.1 to 100	–
O=C(NC1CCCNC1)c1ccc2cc1OCCCCCCCCOc1ccc(cc1)CNc1nc(nc(OCC(F)(F)F)n1)N2 (stereo not shown) [Example 1013]	0.1 to 100	–
C=C1CNCCNc2nc(nc(OCC(F)(F)F)n2)Nc2cccc(c2)CNC1 [Example 1016]	–	EC50 (read-out: EC50): 1000 to 50000 nM
COC(=O)c1ccc2cc1OCCCN(C(=O)OC(C)(C)C)CCCOc1ccc(cc1)CNc1nc(nc(OCC(F)(F)F)n1)N2 [Example 3001]	0.1 to 100	–
COC(=O)c1ccc2cc1OCCCCNCCCOc1ccc(cc1)CNc1nc(nc(OCC(F)(F)F)n1)N2 [Example 3015]	0.1 to 100	–
COC(=O)CCCNC(=O)c1ccc2cc1OCCCCCCCCOc1ccc(cc1)CNc1nc(nc(OCC(F)(F)F)n1)N2 [Example 1101]	0.1 to 100	–
O=C1NCCCCCCNc2nc(nc(OCC(F)(F)F)n2)Nc2cccc1c2 [Example 1001]	1000 to 50000	–

SMILES	EC50 [1] [nM]	further results
COC(=O)[C@H](CNC(=O)OC(C)(C)C)NC(=O)c1ccc2cc1OCCOCCOCCOc1ccc(cc1)CNc1nc(nc(OCC(F)(F)F)n1)N2 [Example 1604]	0.1 to 100	–
COC(=O)N1CCCOc2ccc(cc2)CNc2nc(nc(OCC(F)(F)F)n2)Nc2ccc(C(=O)NCC3(CN4CCCC4)CC3)c(c2)OCCC1 [Example 3004]	0.1 to 100	–
COC(=O)[C@H](CNC(C)=O)NC(=O)c1ccc2cc1OCCCCCCOc1ccc(cc1)CNc1nc(nc(OCC(F)(F)F)n1)N2 [Example 1701]	0.1 to 100	–
CC(C)(C)NC(=O)N1CCCCOc2cc(ccc2C(=O)NCC2(CN3CCCC3)CC2)Nc2nc(nc(OCC(F)(F)F)n2)NCc2ccc(cc2)OCCC1 [Example 3018]	0.1 to 100	–
CC(C)(C)OC(=O)N1CCC(CNC(=O)c2ccc3cc2OCCCCCCOc2ccc(cc2)CNc2nc(nc(OCC(F)(F)F)n2)N3)(C(=O)O)CC1 [Example 1557]	100 to 1000	–
CC(C)(C)OC(=O)N1CCCC(C(NC(=O)c2ccc3cc2OCCOCCOCCOc2ccc(cc2)CNc2nc(nc(OCC(F)(F)F)n2)N3)C(=O)O)C1 (stereo not shown) [Example 1605]	0.1 to 100	EC50 (Hepatitis C virus, Huh-7, 48 h, numeric value, HCV pseudoparticles genotype 1a (H77C), Huh7 cells, luciferase 2 days after infection, average of duplicates): 23 nM
COC(=O)C(NC(=O)c1ccc2cc1OCCCCCCCCOc1ccc(cc1)CNc1nc(nc(OCC(F)(F)F)n1)N2)C1CCCNC1 (stereo not shown) [Example 1152]	0.1 to 100	–
FC(F)(F)COc1nc2nc(n1)Nc1cccc(c1)OCC=CCOc1cccc(c1)N2 [Example 2003]	0.1 to 100	–
O=C(c1ccc2cc1OCCCCCCCCOc1ccc(cc1)CNc1nc(nc(OCC(F)(F)F)n1)N2)N1CCC2(CCNC2)C1 (stereo not shown) [Example 1153]	100 to 1000	–
O=C(NC1CCNC1=O)c1ccc2cc1OCCCCCCOc1ccc(cc1)CNc1nc(nc(OCC(F)(F)F)n1)N2 (stereo not shown) [Example 1324]	0.1 to 100	–
CCOC(=O)[C@H]1CN(C(=O)OC(C)(C)C)C[C@H]1NC(=O)c1ccc2cc1OCCCCCCOc1ccc(cc1)CNc1nc(nc(OCC(F)(F)F)n1)N2 [Example 1320]	0.1 to 100	–
FC(F)(F)COc1nc2nc(n1)Nc1cccc(c1)OCC=CCOc1ccc(cc1)CN2 [Example 2001]	0.1 to 100	–
CC(C)(C)OC(=O)N1CCC2(CCN(C(=O)c3ccc4cc3OCCCCCCCCOc3ccc(cc3)CNc3nc(nc(OCC(F)(F)F)n3)N4)C2)C1 (stereo not shown) [Example 1109]	100 to 1000	–
CC(C)(C)OC(=O)N1CCCC1CC(NC(=O)c1ccc2cc1OCCCCCCOc1ccc(cc1)CNc1nc(nc(OCC(F)(F)F)n1)N2)C(=O)O (stereo not shown) [Example 1407]	0.1 to 100	–
CNC(=O)NC[C@H](NC(=O)c1ccc2cc1OCCCCCCOc1ccc(cc1)CNc1nc(nc(OCC(F)(F)F)n1)N2)C(=O)O [Example 1707]	0.1 to 100	–
N=C(N)NCCC[C@H](NC(=O)c1ccc2cc1OCCCCCCOc1ccc(cc1)CNc1nc(nc(OCC(F)(F)F)n1)N2)C(=O)O [Example 1402]	0.1 to 100	–
